Tests used:
human RBP4 = molecular target: T1, human RBP4 (Homo sapiens, UniProt P02753); assay: Binding assay by Retinol-RBP4-TTR ELISA (human type ELISA); details: retinol 0.5 μM, read-out: human RBP4 binding inhibitory activity (IC50 nM)
T1 construct: the culture supernatant containing secreted/expressed hRBP4-His was recovered; His tag (His6, read from the HISENU oligo); made in house; host or cells: FreeStyle293 expression system (Invitrogen), secreted into the culture supernatant
Experimental: The action of the compound of the present invention to inhibit the binding between RBP4, and retinol and TTR was evaluated using the Retinol-RBP4-TTR ELISA (human type ELISA) system shown below.
The binding assay was performed by an ELISA system (Retinol-RBP4-TTR ELISA) for detecting retinol-RBP4-TTR conjugate by streptavidin-biotin reaction.
His-tagged human RBP4 used was prepared in the above-mentioned 1C.
Biotinylated human TTR used was prepared in the above-mentioned 1E.
Streptavidin (20 μl) (10 μg/ml Streptavidin type II (Wako Pure Chemical Industries, Ltd.), 10 mM Tris-HCl (pH 7.5), 10 mM NaCl) was added to a 384 well black maxisorp plate (Nunc), and the plate was subjected to centrifugation (1000 rpm, 1 min) and coated overnight at 4° C. The plate was washed twice with PBST (PBS, 0.05% Tween 20, 100 μl/well) and blocked with 25% Block Ace (Snow Brand Milk Products Co., Ltd., PBS, 100 μl/well). The plate was subjected to centrifugation (1000 rpm, 1 min) and incubated at room temperature for 4 hr or overnight at 4° C. The plate was washed twice with PBST (PBS, 0.05% Tween 20, 100 μl/well), and biotinylated human TTR (stock solution concentration 1.3 mg/ml) diluted 1000-fold with PBST was added at 20 μl/well. The plate was subjected to centrifugation (1000 rpm, 1 min) and stood still at room temperature for 1.5 hr or overnight at 4° C. The plate was washed 3 times with PEST (100 μl/well), and His-tagged human RBP4 (stock solution concentration 0.96 mg/ml) diluted 4000-fold with a reaction buffer (50 mM Tris-HCl, 150 mM NaCl, 0.005% Tween 20, 1 mM DTT, 0.1% BSA) was added at 10 μl/well. The dilution series (8 doses from 10 mM, 200-fold concentration) of the compound was prepared with DMSO, and 1 μl of each was added to a reaction buffer (200 μl) containing retinol (0.5 μM) (Sigma-Aldrich Co.). A reaction buffer (200 μl) containing retinol and added with DMSO was used as a positive control, and reaction buffer (200 μl) free of retinol and added with DMSO was used as a negative control. Mixed solutions of retinol and the compound were added to the plate at 15 μl/well. The mixture was stirred in a platemixer, subjected to centrifugation (1000 rpm, 1 min) and reacted at room temperature for 2 hr. A 35% Block Ace solution diluted with the reaction buffer was added at 10 μl/well, centrifuged (1000 rpm, 1 min) and reacted at room temperature for 30 min. The plate was washed 3 times with PBST (100 μl/well) and SuperSignal ELISA Femto Maximum Sensitivity Substrate reagent (PIERCE) was added at 30 μl/well, and the luminescence was measured by a platereader (Wallac).
The binding activity rate of the compound was determined by 100×(test compound value−negative control value)/(positive control value−negative control value). The binding inhibitory activity (IC50) was calculated from the binding activity rate at each compound concentration using a graph drawing software, Prism (GraphPad Software Inc.).

RBP4 = molecular target: T2, RBP4 (Mus musculus, UniProt Q00724); assay: Blood RBP4 lowering action in C57BL/6J mouse, single oral administration; type: in vivo; details: plasma, mean±SD n=5; for RBP4 (% of initial/Control) 0 hr later: 0 hr value before administration, 50 mg/kg oral; for RBP4 (% of initial/Control) 4 hr later: 4 hr after 50 mg/kg oral; for RBP4 (% of initial/Control) 7 hr later: 7 hr after 50 mg/kg oral; for RBP4 (% of initial/Control) 24 hr later: 24 hr after 50 mg/kg oral
T2 construct: from tissue; host or cells: plasma of male C57BL/6J mice (Charles River Laboratories Japan Inc.)
Experimental: A blood RBP4 lowering action of the compound of the present invention was evaluated using C57BL/6J mouse.
Male 7- to 15-week-old C57BL/6J mice (Charles River Laboratories Japan Inc.) were individually bred for acclimation for 4-6 days under conditions with free access to CE-2 solid food (CLEA Japan, Inc.), and grouped based on the body weight (5 per group). The next day of grouping, blood samples were collected from the orbital venous plexus, and plasma was separated (0 hr value). Thereafter, the test compounds (Examples 1, 13, 15, 16, 17, 27 and 34) were orally administered at a dose of 50 mg/kg (solvent: 0.5% methylcellulose solution (10 mL/kg)). At 4, 7 and 24 hr after administration of the compounds, blood samples were collected from the orbital venous plexus, and plasma was separated. A 0.5% methylcellulose solution (10 mL/kg) was orally administered to the control group.
The RBP4 level of the collected plasma was measured by ELISA. RBP4 was quantified by the following steps using a rabbit, anti-mouse RBP4 polyclonal antibody (Hokudo Co., Ltd). A 96 well ELISA plate was coated with 50 μg/ml of the antibody (100 μL) and stood at 4° C. overnight. After blocking with BlockAce (DAINIPPON PHARMACEUTICAL CO., LTD.), mouse RBP4 or a sample (100 μL) was added and the plate was stood at room temperature for 2 hr. After washing with PBS-0.5% Tween 20, HRP-labeled anti-RBP4 antibody (prepared by labeling RBP4 polyclonal antibody (Hokudo Co., Ltd) with HRP (DOJINDO LABORATORIES)) was added by 100 μL, and the plate was stood at room temperature for 1 hr. After washing, TMB (Dako Cytomations) was added, and the mixture was stood at room temperature for 20 min to allow color development, and the reaction was quenched with 2N sulfuric acid. Thereafter, the absorbance at A450 nm was measured on a platereader. The amount of change from the initial value of each animal was determined as a relative value from the control group (% of initial/Control) at each time point. The results are shown in the following in mean±standard deviation (n=5).

SMILES	IC50 (human RBP4)	RBP4 (% of initial/Control) 0 hr later (RBP4)	RBP4 (% of initial/Control) 4 hr later (RBP4)	RBP4 (% of initial/Control) 7 hr later (RBP4)	RBP4 (% of initial/Control) 24 hr later (RBP4)
O=C(O)C[S+]([O-])C1CCN(c2cc(C(F)(F)F)cc(C(F)(F)F)c2)C1 (centres unmarked) [Example 2, ({1-[3,5-bis(trifluoromethyl)phenyl]pyrrolidin-3-yl}sulfinyl)acetic acid]	38 nM	–	–	–	–
O=C(O)CSC1CCN(c2cc(C(F)(F)F)cc(C(F)(F)F)c2)C1 (centres unmarked) [Example 1, ({1-[3,5-bis(trifluoromethyl)phenyl]pyrrolidin-3-yl}sulfanyl)acetic acid]	45 nM	100 ± 20.2 % of initial/Control	42.5 ± 3.3 % of initial/Control	36.0 ± 3.2 % of initial/Control	73.8 ± 19.3 % of initial/Control
O=C(O)CCN1CCN(c2cc(C(F)(F)F)cc(C(F)(F)F)c2)C1=O [Example 15, 3-{3-[3,5-bis(trifluoromethyl)phenyl]-2-oxoimidazolidin-1-yl}propanoic acid]	320 nM	100.0 ± 4.4 % of initial/Control	51.0 ± 1.4 % of initial/Control	49.0 ± 1.1 % of initial/Control	58.2 ± 2.7 % of initial/Control
O=C(O)CN1CC(c2cc(C(F)(F)F)cc(C(F)(F)F)c2)CC1=O (centres unmarked) [Example 48, {4-[3,5-bis(trifluoromethyl)phenyl]-2-oxopyrrolidin-1-yl}acetic acid]	210 nM	–	–	–	–
O=C(O)CCSC1CCN(c2cc(C(F)(F)F)cc(C(F)(F)F)c2)C1 (centres unmarked) [Example 50, 3-({1-[3,5-bis(trifluoromethyl)phenyl]pyrrolidin-3-yl}sulfanyl)propanoic acid]	81 nM	–	–	–	–
O=C(O)COC1CCN(c2ccc(Cl)c(C(F)(F)F)c2)C1 (centres unmarked) [Example 27, calcium ({1-[4-chloro-3-(trifluoromethyl)phenyl]pyrrolidin-3-yl}oxy)acetate]	140 nM	100.0 ± 2.1 % of initial/Control	56.2 ± 1.7 % of initial/Control	56.0 ± 1.6 % of initial/Control	59.6 ± 2.1 % of initial/Control
O=C(O)CCC1CCN(c2cccc(C(F)(F)F)c2Cl)C1 (centres unmarked) [Example 14, 3-{1-[2-chloro-3-(trifluoromethyl)phenyl]pyrrolidin-3-yl}propanoic acid]	39 nM	–	–	–	–
O=C(O)CSC1CCN(c2cc(C(F)(F)F)cc(C(F)(F)F)c2)C1 (single isomer, unassigned) [Example 11, ({1-[3,5-bis(trifluoromethyl)phenyl]pyrrolidin-3-yl}sulfanyl)acetic acid]	13 nM	–	–	–	–
O=C(O)CSC1CCN(c2cc(C(F)(F)F)cc(C(F)(F)F)c2)C1 (single isomer, unassigned) [Example 10, ({1-[3,5-bis(trifluoromethyl)phenyl]pyrrolidin-3-yl}sulfanyl)acetic acid]	27 nM	–	–	–	–
O=C(O)CCC1CCN(c2ccc(Cl)c(C(F)(F)F)c2)C1 (centres unmarked) [Example 13, 3-{1-[4-chloro-3-(trifluoromethyl)phenyl]pyrrolidin-3-yl}propanoic acid]	26 nM	100.0 ± 10.9 % of initial/Control	54.5 ± 1.2 % of initial/Control	56.5 ± 2.5 % of initial/Control	106.6 ± 3.9 % of initial/Control
